Consider 25 molecules from patent US10301267B2, “Compounds” (AstraZeneca AB, priority 2006, dated 2019).

pIC50: −log10 of the molar value.

One may read the pIC50 as −log10 of the IC50, conventionally taken in molar units.

For one experiment, the target named is T1, FGFR1 active kinase (Homo sapiens, UniProt P11362). The experiment in a line: FGFR Kinase assay - Caliper Echo Dosing. It is filed as biochemical. The conditions noted are these: FGFR1 7.2 nM, 408 uM ATP, acoustic dosing; geometric mean of n. The procedure: FGFR Kinase Assay—Caliper Echo Dosing
T1 sequence (P11362 22-822): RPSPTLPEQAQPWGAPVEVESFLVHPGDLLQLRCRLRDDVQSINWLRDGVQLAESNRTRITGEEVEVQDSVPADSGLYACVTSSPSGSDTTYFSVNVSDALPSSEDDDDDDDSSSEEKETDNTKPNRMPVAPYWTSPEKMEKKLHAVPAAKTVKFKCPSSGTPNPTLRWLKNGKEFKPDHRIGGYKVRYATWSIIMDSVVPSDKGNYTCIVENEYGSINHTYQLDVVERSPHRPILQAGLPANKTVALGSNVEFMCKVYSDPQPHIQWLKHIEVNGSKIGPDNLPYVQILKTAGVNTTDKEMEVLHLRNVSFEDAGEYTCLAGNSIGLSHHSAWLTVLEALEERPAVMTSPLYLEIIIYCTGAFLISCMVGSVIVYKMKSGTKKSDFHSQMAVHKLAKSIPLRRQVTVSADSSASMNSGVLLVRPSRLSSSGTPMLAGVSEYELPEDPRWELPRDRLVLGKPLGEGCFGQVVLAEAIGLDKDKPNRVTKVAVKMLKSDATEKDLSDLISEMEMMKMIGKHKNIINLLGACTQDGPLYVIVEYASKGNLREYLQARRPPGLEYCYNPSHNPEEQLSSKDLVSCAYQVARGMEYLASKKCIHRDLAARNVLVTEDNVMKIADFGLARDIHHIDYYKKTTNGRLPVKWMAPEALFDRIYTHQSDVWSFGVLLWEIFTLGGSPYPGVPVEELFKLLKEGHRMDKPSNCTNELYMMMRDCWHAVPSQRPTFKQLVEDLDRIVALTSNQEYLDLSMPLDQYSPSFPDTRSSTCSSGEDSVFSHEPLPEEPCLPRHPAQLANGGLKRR
(§1) To determine inhibition of FGFR activity, kinase assays were conducted using Caliper technology.
(§2) Kinase activity assays were performed in Greiner 384-well low volume plates, with a total reaction volume of 12 ul per well. Final concentration of FGFR1 active kinase in each reaction well was 7.2 nM. The substrate for each assay was a custom peptide with fluorescent tag (13 amino acids in length, […] with the fluorescene tag on the first K).
Compounds were dispensed directly in to assay plates using a Labcyte Echo 550 acoustic droplet ejection unit. Each well received 120 nl of DMSO containing compound such that the final concentration of compound in the assay prior to the addition of the stop solution ranged between 30 uM and 30 pM. In addition to compounds each plate carried maximum and minimum control wells, the max wells contained 120 nl of DMSO and the min wells contained 120 nl of 10 mM staurosporine (LC Laboratories, MA 01801, USA Catalogue No. S-9300). The Enzyme (at 7.2 nM [final]) and Substrate (at 3.6 uM [final]) were added separately to the compound plates, in reaction buffer [comprising: 50 mM MOPS (Sigma, Catalogue No. M1254)—pH 6.5, 0.004% Triton (Sigma, Catalogue No. X-100), 2.4 mM DTT, 12 mM MgCl2, 408 uM ATP] resulting in a final DMSO concentration in the reaction mix of 1%.
(§3) Assay plates were incubated at room temperature for 1.5 h, before the reaction was stopped with the addition of buffer [comprising: 100 mM HEPES—pH7.5, 0.033% Brij-35 (Sigma Catalogue No. B4184), 0.22% Caliper Coating Reagent #3 (Caliper Life Sciences Catalogue No. 760050), 88 mM EDTA, 5% DMSO]. Stopped assay plates were then read using the Caliper LabChip® LC3000 (which uses microfludics to measure a shift in mobility between fluorescent labelled peptide and the FGFR1 kinase—phosphorylated form of this peptide).
In the assay, compounds were tested at a range of concentrations. […] Percentage inhibition at 1 uM, as expressed herein, is a calculated value based on the curve fit that was generated experimentally. From the fitted curve plot, the effect of compound at a concentration of 1 uM was calculated as a percentage inhibition. The IC50 is the concentration of compound, which inhibits FGFR1 kinase activity by 50% in the context of this assay. This value is calculated using a standard curve fitting software package Origin™.
Take `C=CCN1CCCN(c2ncc(C(=O)Nc3cc(CCc4cc(OC)cc(OC)c4)n[nH]3)cn2)CC1` [Example 175, N-[5-[2-(3,5-dimethoxyphenyl)ethyl]-2H-pyrazol-3-yl]-2-(4-prop-2-enyl-1,4-diazepan-1-yl)pyrimidine-5-carboxamide]: the pIC50 was 8.15.

For the molecule `COc1cc(COc2cc(NC(=O)c3ccc(N4CCN(C5CC5)CC4)cc3)[nH]n2)cc(OC)c1` [Example 116, 4-(4-cyclopropylpiperazin-1-yl)-N-[5-[(3,5-dimethoxyphenyl)methoxy]-2H-pyrazol-3-yl]benzamide], the pIC50 was 9.03.

`C=CCN1CCCN(c2cnc(C(=O)Nc3cc(CCc4cc(OC)cc(OC)c4)n[nH]3)cn2)CC1` [Example 172, N-[5-[2-(3,5-dimethoxyphenyl)ethyl]-2H-pyrazol-3-yl]-5-(4-prop-2-enyl-1,4-diazepan-1-yl)pyrazine-2-carboxamide] showed a pIC50 of 8.47.

`C#CCN1CCC(c2ccc(C(=O)Nc3cc(CCc4cc(OC)cc(OC)c4)n[nH]3)cc2)CC1` [Example 146, N-[5-[2-(3,5-dimethoxyphenyl)ethyl]-2H-pyrazol-3-yl]-4-(1-prop-2-ynylpiperidin-4-yl)benzamide] had a pIC50 of 8.96.

Turning to `COc1cc(COc2cc(NC(=O)c3cnc(N4CCN(C)C(C)C4)cn3)[nH]n2)cc(OC)c1` (stereo not shown) [Example 124, N-[5-[(3,5-Dimethoxyphenyl)methoxy]-2H-pyrazol-3-yl]-5-(3,4-dimethylpiperazin-1-yl)pyrazine-2-carboxamide], the pIC50 was 8.82.

`COc1cc(COc2cc(NC(=O)c3ccc(N4CCN(C)CC4)s3)[nH]n2)cc(OC)c1` [Example 107, N-[5-[(3,5-dimethoxyphenyl)methoxy]-2H-pyrazol-3-yl]-5-(4-methylpiperazin-1-yl)thiophene-2-carboxamide]: the pIC50 was 8.96.

The molecule `COc1cc(COc2cc(NC(=O)c3cnc(N4CCN5CCCCC5C4)nc3)[nH]n2)cc(OC)c1` (stereo not shown) [Example 119, 2-(1,3,4,6,7,8,9,9a-Octahydropyrido[2,1-c]pyrazin-2-yl)-N-[5-[(3,5-dimethoxyphenyl)methoxy]-2H-pyrazol-3-yl]pyrimidine-5-carboxamide] had a pIC50 of 8.48.

Molecule `COc1cc(CCc2cc(NC(=O)c3cnc(N4CCC(N(C)C)C4)cn3)[nH]n2)cc(OC)c1` (stereo not shown) [Example 157, N-[5-[2-(3,5-dimethoxyphenyl)ethyl]-2H-pyrazol-3-yl]-5-(3-dimethylaminopyrrolidin-1-yl)pyrazine-2-carboxamide] showed a pIC50 of 8.62.

As for `C=CCN1CCCN(c2ccc(C(=O)Nc3cc(CCc4cc(OC)cc(OC)c4)n[nH]3)cc2)CC1` [Example 164, N-[5-[2-(3,5-dimethoxyphenyl)ethyl]-2H-pyrazol-3-yl]-4-(4-prop-2-enyl-1,4-diazepan-1-yl)benzamide], the pIC50 is 9.11.

For `COc1cc(CCc2cc(NC(=O)c3cnc(N4CCN5CCCC5C4)cn3)[nH]n2)cc(OC)c1` (stereo not shown) [Example 114, 5-(3,4,6,7,8,8a-hexahydro-1H-pyrrolo[2,1-c]pyrazin-2-yl)-N-[5-[2-(3,5-dimethoxyphenyl)ethyl]-2H-pyrazol-3-yl]pyrazine-2-carboxamide], the pIC50 was 8.80.

In turn, `COc1cc(COc2cc(NC(=O)c3ccc(N4CCN5CCCCC5C4)cc3)[nH]n2)cc(OC)c1` (stereo not shown) [Example 98, 4-(1,3,4,6,7,8,9,9a-octahydropyrido[2,1-c]pyrazin-2-yl)-N-[5-[(3,5-dimethoxyphenyl)methoxy]-2H-pyrazol-3-yl]benzamide] gave a pIC50 of 8.52.

`CCN1CCC(c2ccc(C(=O)Nc3cc(CCc4cc(OC)cc(OC)c4)n[nH]3)cc2)CC1` [Example 159, N-[5-[2-(3,5-dimethoxyphenyl)ethyl]-2H-pyrazol-3-yl]-4-(1-ethylpiperidin-4-yl)benzamide] showed a pIC50 of 9.01.

With `COc1cc(CCc2cc(NC(=O)c3ccc(I)cc3)[nH]n2)cc(OC)c1` [Example 82, N-[5-[2-(3,5-Dimethoxyphenyl)ethyl]-2H-pyrazol-3-yl]-4-iodo-benzamide], the pIC50 was 7.68.

Turning to `CCN1CCN(c2ccc(C(=O)Nc3cc(OCc4cc(OC)cc(OC)c4)n[nH]3)cc2)CC1` [Example 179, N-[5-[(3,5-dimethoxyphenyl)methoxy]-2H-pyrazol-3-yl]-4-(4-ethylpiperazin-1-yl)benzamide], the pIC50 is 9.17.

The molecule `CCN1CCN(c2ncc(C(=O)Nc3cc(CCc4cc(OC)cc(OC)c4)n[nH]3)cn2)CC1C` (stereo not shown) [Example 143, N-[5-[2-(3,5-dimethoxyphenyl)ethyl]-2H-pyrazol-3-yl]-2-(4-ethyl-3-methylpiperazin-1-yl)pyrimidine-5-carboxamide] showed a pIC50 of 8.57.

Take `COc1cc(CCc2cc(NC(=O)c3ccc(N4CCN5CCCC5C4)s3)[nH]n2)cc(OC)c1` (stereo not shown) [Example 120, 5-(3,4,6,7,8,8a-hexahydro-1H-pyrrolo[2,1-c]pyrazin-2-yl)-N-[5-[2-(3,5-dimethoxyphenyl)ethyl]-2H-pyrazol-3-yl]thiophene-2-carboxamide]: the pIC50 was 9.01.

With `COCC1CN(c2ncc(C(=O)Nc3cc(CCc4cc(OC)cc(OC)c4)n[nH]3)cn2)CCN1` (stereo not shown) [Example 160, N-[5-[2-(3,5-dimethoxyphenyl)ethyl]-2H-pyrazol-3-yl]-2-[3-(methoxymethyl)piperazin-1-yl]pyrimidine-5-carboxamide], the negative logarithm of the IC50 (pIC50) is 8.37.

The molecule `COc1cc(CCc2cc(NC(=O)c3ccc(N4CC[N+](C)([O-])CC4)cc3)[nH]n2)cc(OC)c1` [Example 117, N-[5-[2-(3,5-Dimethoxyphenyl)ethyl]-2H-pyrazol-3-yl]-4-(4-methyl-4-oxidopiperazin-4-ium-1-yl)benzamide] showed a pIC50 of 8.89.

As to `COc1cc(CCc2cc(NC(=O)c3cnc(N4CCCN(C)CC4)nc3)[nH]n2)cc(OC)c1` [Example 176, N-[5-[2-(3,5-dimethoxyphenyl)ethyl]-2H-pyrazol-3-yl]-2-(4-methyl-1,4-diazepan-1-yl)pyrimidine-5-carboxamide], the pIC50 was 8.24.

In the next experiment the target is T1, FGFR1 active kinase. The experiment is described as follows: FGFR Kinase assay - Caliper. Note: 408 µM ATP. The format is biochemical. The conditions noted are these: FGFR1 […], 408 uM ATP; mean of n as printed; read-out: FGFR Kinase assay - Caliper, IC50. The procedure: FGFR Kinase Assay—Caliper
as §1, §2
Compounds were serially diluted in 5% (v/v) DMSO, before being added to assay plates. The Enzyme (at 7.2 nM [final]) and Substrate (at 3.6 uM [final]) were added separately to the compound plates, in reaction buffer [comprising: 50 mM MOPS (Sigma, Catalogue No. M1254)—pH 6.5, 0.004% Triton (Sigma, Catalogue No. X-100), 2.4 mM DTT, 12 mM MgCl2, 408 uM ATP] resulting in a final DMSO concentration in the reaction mix of 0.8%.
as §3
In the assay, compounds were tested at a range of concentrations.
Percentage inhibition at 1 uM, as expressed herein, is a calculated value based on the curve fit that was generated experimentally. From the fitted curve plot, the effect of compound at a concentration of 1 uM was calculated as a percentage inhibition. The IC50 is the concentration of compound, which inhibits FGFR1 kinase activity by 50% in the context of this assay.
In the case of `COc1ccc(C(=O)Nc2cc(OCc3cc(OC)cc(OC)c3)n[nH]2)cc1` [Example 71, N-[5-[(3,5-Dimethoxyphenyl)methoxy]-2H-pyrazol-3-yl]-4-methoxy-benzamide], the negative logarithm of the IC50 (pIC50) was 6.80.

For the molecule `COc1cc(CCc2cc(NC(=O)c3ccc(OCCN4CCOCC4)cc3)n[nH]2)cc(OC)c1` [Example 54, N-[5-[2-(3,5-Dimethoxyphenyl)ethyl]-1H-pyrazol-3-yl]-4-(2-morpholin-4-ylethoxy)benzamide], the pIC50 is 7.02.

`COc1cccc(CCc2cc(NC(=O)c3ccc(S(=O)(=O)N(C)C)cc3)[nH]n2)c1` [Example 30, 4-(Dimethylsulfamoyl)-N-[5-[2-(3-methoxyphenyl)ethyl]-2H-pyrazol-3-yl]benzamide]: the negative logarithm of the IC50 (pIC50) was 6.10.

As for `COc1cccc(CCc2cc(NC(=O)c3ccc(C(=O)O)nc3)[nH]n2)c1` [Example 66, 5-[[5-[2-(3-Methoxyphenyl)ethyl]-2H-pyrazol-3-yl]carbamoyl]pyridine-2-carboxylic Acid], the pIC50 was 5.99.

Regarding `COc1cc(CCc2cc(NC(=O)c3ccc(N4CCN5CCCC5C4)cc3)[nH]n2)cc(OC)c1` (stereo not shown) [Example 93, 4-(3,4,6,7,8,8a-Hexahydro-1H-pyrrolo[2,1-c]pyrazin-2-yl)-N-[5-[2-(3,5-dimethoxyphenyl)ethyl]-2H-pyrazol-3-yl]benzamide], the pIC50 is 7.43.

In the case of `COc1ccc(OC)c(CCc2cc(NC(=O)c3ccc(N4CCN(C)CC4)cc3)[nH]n2)c1` [Example 78, N-[5-[2-(2,5-Dimethoxyphenyl)ethyl]-2H-pyrazol-3-yl]-4-(4-methylpiperazin-1-yl)benzamide], the negative logarithm of the IC50 (pIC50) was 6.33.
